Columns and labels:
Assay in all cases: Kinase profiling
Assay type in all cases: biochemical
MST2 = target: T1, MST2 (Homo sapiens, UniProt Q13188)
T1 construct: purchased ProQinase (Freiburg, Germany)
T1 sequence (Q13188 1-491): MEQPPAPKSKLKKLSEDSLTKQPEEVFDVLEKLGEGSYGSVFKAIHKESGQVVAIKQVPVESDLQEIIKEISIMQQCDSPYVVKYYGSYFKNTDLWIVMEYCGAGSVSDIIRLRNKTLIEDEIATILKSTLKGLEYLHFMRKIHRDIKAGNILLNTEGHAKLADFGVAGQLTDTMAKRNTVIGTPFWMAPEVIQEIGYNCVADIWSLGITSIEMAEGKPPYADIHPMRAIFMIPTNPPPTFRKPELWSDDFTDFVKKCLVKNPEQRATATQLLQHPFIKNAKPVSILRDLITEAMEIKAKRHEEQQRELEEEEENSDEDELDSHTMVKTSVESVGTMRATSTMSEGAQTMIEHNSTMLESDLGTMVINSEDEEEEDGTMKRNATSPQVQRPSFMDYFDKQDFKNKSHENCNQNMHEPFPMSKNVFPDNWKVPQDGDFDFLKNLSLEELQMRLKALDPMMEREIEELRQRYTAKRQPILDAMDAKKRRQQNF
Experimental: (§1) The analysis was performed by ProQinase (Freiburg, Germany).

ACK1 = target: T2, ACK1 (Homo sapiens, UniProt Q07912)
T2 construct: purchased ProQinase (Freiburg, Germany)
Experimental: as §1

CK1alpha1 = target: T3, CK1alpha1 (Homo sapiens, UniProt P48729)
T3 construct: purchased ProQinase (Freiburg, Germany)
T3 sequence (P48729 whole entry): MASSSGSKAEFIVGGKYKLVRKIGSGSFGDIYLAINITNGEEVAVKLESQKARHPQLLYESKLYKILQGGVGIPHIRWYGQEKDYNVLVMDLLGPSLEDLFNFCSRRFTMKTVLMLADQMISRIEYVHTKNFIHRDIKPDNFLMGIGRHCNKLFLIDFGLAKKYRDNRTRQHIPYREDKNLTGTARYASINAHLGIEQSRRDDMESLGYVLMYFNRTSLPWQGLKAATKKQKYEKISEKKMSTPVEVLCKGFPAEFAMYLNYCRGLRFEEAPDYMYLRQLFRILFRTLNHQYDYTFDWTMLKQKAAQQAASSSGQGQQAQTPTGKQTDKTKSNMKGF
Experimental: as §1

PIM3 = target: T4, PIM3 (Homo sapiens, UniProt Q86V86)
T4 construct: purchased ProQinase (Freiburg, Germany)
Experimental: as §1

CHK2 = target: T5, CHK2 (Homo sapiens, UniProt O96017)
T5 construct: purchased ProQinase (Freiburg, Germany)
T5 sequence (O96017 whole entry): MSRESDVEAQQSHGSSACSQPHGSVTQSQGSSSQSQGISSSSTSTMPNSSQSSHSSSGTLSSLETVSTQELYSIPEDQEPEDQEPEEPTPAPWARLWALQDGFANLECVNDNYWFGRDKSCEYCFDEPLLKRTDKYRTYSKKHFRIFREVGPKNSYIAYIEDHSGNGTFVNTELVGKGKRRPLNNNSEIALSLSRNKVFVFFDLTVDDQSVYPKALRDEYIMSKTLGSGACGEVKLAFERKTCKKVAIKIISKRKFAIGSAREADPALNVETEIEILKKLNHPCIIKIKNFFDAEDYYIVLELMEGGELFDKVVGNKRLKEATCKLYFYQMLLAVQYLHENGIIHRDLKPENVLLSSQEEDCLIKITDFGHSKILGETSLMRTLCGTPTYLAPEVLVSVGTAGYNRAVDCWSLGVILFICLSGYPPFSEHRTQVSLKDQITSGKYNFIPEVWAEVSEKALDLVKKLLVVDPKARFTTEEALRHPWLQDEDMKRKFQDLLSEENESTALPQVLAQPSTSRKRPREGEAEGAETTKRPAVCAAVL
Experimental: as §1

MELK = target: T6, MELK (Homo sapiens, UniProt Q14680)
T6 construct: purchased ProQinase (Freiburg, Germany)
Experimental: as §1

FES = target: T7, FES (Homo sapiens, UniProt P07332)
T7 construct: purchased ProQinase (Freiburg, Germany)
T7 sequence (P07332 whole entry): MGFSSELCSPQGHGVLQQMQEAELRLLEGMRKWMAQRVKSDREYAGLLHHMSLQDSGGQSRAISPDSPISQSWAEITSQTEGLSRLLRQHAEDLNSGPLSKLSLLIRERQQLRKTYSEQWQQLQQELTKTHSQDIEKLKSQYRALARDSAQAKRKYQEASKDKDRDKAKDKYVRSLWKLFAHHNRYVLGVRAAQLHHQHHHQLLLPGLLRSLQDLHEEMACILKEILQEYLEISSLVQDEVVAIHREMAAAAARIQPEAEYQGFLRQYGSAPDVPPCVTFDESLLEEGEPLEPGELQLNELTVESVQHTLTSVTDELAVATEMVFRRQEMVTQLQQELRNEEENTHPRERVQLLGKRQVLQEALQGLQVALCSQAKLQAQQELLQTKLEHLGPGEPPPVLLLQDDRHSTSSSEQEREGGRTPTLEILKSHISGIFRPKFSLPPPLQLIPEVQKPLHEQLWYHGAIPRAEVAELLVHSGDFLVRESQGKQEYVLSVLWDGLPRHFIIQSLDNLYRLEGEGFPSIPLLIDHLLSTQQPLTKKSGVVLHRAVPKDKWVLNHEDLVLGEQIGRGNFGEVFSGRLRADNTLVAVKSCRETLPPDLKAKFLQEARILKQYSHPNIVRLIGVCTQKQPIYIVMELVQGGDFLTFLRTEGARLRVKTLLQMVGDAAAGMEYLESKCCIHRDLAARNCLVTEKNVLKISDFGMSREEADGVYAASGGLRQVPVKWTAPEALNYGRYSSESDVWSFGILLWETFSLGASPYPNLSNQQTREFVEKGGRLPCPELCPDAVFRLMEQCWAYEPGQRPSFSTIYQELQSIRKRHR
Experimental: as §1

BUB1B = target: T8, BUB1B (Homo sapiens, UniProt O60566)
T8 construct: purchased ProQinase (Freiburg, Germany)
T8 sequence (O60566 whole entry): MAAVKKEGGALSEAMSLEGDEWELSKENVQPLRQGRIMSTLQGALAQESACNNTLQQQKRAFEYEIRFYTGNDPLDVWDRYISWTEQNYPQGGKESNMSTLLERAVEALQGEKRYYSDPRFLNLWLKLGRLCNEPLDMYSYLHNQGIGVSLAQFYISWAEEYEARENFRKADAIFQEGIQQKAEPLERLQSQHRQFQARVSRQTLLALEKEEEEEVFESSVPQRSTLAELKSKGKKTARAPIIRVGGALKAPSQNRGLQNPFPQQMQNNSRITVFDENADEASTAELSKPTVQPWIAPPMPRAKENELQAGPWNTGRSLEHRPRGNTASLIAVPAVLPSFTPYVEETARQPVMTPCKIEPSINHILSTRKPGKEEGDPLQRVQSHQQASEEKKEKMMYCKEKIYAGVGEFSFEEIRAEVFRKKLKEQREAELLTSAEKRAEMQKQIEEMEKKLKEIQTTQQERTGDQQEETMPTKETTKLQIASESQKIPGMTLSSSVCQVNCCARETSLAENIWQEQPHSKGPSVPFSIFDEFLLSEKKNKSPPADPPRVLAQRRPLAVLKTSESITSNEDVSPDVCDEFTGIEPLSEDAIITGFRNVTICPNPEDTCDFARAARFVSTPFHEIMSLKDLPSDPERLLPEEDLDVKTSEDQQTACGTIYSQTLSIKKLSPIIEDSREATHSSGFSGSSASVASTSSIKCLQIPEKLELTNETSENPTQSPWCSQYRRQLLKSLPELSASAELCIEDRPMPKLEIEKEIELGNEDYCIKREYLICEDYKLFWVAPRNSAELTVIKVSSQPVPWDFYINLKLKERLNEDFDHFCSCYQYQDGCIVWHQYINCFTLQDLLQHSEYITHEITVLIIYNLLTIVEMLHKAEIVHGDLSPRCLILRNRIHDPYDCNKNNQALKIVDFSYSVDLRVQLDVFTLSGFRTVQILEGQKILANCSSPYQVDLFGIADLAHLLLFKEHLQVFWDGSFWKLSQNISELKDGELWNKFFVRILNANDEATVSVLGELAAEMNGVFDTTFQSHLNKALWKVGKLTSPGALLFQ
Experimental: as §1

PHKG1 = target: T9, PHKG1 (Homo sapiens, UniProt Q16816)
T9 construct: purchased ProQinase (Freiburg, Germany)
T9 sequence (Q16816 whole entry): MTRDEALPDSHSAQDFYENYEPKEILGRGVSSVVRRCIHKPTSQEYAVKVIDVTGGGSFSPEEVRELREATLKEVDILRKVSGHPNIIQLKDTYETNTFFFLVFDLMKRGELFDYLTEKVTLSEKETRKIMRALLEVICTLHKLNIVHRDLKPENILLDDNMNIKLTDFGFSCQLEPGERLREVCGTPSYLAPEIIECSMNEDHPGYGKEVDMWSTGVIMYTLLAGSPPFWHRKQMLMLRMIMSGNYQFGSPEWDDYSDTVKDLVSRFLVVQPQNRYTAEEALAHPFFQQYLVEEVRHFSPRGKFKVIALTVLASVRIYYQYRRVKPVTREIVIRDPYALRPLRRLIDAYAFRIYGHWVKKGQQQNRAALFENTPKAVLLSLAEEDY
Experimental: as §1

CDC7/DBF4 = target: T10, CDC7/DBF4 (Homo sapiens, UniProt O00311)
T10 construct: purchased ProQinase (Freiburg, Germany)
Experimental: as §1

CK1gamma1 = target: T11, CK1gamma1 (Homo sapiens, UniProt Q9HCP0)
T11 construct: purchased ProQinase (Freiburg, Germany)
T11 sequence (Q9HCP0 whole entry): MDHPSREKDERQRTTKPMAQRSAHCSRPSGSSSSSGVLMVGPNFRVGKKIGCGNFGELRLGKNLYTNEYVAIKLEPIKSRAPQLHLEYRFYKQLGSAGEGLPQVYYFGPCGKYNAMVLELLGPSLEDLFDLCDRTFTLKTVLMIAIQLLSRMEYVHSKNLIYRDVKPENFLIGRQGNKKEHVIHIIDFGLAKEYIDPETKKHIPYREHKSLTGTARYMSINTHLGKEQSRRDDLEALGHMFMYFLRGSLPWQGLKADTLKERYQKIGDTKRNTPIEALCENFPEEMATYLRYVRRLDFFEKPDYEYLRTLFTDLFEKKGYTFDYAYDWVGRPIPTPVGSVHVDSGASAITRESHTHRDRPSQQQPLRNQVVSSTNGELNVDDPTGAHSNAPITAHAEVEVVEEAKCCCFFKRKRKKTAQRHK
Experimental: as §1

NEK1 = target: T12, NEK1 (Homo sapiens, UniProt Q96PY6)
T12 construct: purchased ProQinase (Freiburg, Germany)
T12 sequence (Q96PY6 1-1258): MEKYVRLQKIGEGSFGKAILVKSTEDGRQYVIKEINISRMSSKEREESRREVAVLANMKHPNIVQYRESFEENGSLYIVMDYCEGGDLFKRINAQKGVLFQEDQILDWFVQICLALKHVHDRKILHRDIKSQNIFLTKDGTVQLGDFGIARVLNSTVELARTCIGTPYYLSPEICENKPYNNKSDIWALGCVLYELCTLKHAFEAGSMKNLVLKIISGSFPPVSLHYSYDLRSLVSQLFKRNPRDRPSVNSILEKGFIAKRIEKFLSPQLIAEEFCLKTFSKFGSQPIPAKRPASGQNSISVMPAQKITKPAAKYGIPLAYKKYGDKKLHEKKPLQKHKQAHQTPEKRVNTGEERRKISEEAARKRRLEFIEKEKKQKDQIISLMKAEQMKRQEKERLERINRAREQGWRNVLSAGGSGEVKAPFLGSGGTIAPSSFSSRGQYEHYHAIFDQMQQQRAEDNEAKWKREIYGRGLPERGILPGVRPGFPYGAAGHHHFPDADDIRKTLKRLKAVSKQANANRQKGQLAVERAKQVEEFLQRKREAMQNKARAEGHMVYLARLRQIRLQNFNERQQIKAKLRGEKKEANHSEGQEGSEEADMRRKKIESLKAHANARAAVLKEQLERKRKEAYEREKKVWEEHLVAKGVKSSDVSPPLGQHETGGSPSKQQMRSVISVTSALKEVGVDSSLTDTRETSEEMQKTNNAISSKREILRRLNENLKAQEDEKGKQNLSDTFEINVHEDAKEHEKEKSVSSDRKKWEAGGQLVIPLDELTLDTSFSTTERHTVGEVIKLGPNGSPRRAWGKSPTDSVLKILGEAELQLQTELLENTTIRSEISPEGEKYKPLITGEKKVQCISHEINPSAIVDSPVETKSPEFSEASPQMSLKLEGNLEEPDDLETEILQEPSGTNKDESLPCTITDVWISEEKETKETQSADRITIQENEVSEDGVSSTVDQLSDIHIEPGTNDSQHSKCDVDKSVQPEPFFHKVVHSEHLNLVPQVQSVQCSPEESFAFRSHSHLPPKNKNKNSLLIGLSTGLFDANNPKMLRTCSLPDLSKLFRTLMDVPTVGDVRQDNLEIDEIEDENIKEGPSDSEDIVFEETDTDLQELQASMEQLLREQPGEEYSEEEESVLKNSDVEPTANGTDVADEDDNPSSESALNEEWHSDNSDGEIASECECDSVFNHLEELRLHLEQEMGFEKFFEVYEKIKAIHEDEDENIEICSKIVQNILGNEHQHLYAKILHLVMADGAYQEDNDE
Experimental: as §1

CK1delta = target: T13, CK1delta (Homo sapiens, UniProt P48730)
T13 construct: purchased ProQinase (Freiburg, Germany)
T13 sequence (P48730 whole entry): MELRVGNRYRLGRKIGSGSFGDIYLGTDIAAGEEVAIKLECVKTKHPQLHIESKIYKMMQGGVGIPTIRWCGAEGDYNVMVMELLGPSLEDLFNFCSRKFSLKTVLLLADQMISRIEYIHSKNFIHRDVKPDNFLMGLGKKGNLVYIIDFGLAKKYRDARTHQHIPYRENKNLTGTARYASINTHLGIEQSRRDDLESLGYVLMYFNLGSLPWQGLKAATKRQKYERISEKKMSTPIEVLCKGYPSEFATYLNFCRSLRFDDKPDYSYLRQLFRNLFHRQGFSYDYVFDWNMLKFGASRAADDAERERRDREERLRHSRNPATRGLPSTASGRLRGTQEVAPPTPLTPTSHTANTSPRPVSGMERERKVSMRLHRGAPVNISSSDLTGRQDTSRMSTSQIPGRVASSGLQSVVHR
Experimental: as §1

BLK = target: T14, BLK (Homo sapiens, UniProt P51451)
T14 construct: purchased ProQinase (Freiburg, Germany)
T14 sequence (P51451 whole entry): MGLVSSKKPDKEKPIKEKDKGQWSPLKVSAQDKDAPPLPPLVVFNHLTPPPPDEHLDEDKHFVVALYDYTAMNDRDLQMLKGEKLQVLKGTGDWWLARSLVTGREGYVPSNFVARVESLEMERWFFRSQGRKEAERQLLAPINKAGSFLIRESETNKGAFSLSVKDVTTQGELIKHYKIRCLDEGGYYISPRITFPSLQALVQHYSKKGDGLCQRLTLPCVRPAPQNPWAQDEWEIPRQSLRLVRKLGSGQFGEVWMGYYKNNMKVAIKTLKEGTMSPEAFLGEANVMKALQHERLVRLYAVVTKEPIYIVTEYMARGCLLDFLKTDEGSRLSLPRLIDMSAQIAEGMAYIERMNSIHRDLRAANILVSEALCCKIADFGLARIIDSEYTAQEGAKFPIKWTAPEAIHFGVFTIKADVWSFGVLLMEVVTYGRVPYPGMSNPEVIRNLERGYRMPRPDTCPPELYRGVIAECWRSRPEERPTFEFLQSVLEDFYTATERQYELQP
Experimental: as §1

Compound | Residual activity (MST2; 1.0E-05 M) | Residual activity (MST2; 1.0E-06 M) | Residual activity (ACK1; 1.0E-05 M) | Residual activity (ACK1; 1.0E-06 M) | Residual activity (CK1alpha1; 1.0E-05 M) | Residual activity (CK1alpha1; 1.0E-06 M) | Residual activity (PIM3; 1.0E-05 M) | Residual activity (PIM3; 1.0E-06 M) | Residual activity (CHK2; 1.0E-05 M) | Residual activity (CHK2; 1.0E-06 M) | Residual activity (MELK; 1.0E-05 M) | Residual activity (MELK; 1.0E-06 M) | Residual activity (FES; 1.0E-05 M) | Residual activity (FES; 1.0E-06 M) | Residual activity (BUB1B; 1.0E-05 M) | Residual activity (BUB1B; 1.0E-06 M) | Residual activity (PHKG1; 1.0E-05 M) | Residual activity (PHKG1; 1.0E-06 M) | Residual activity (CDC7/DBF4; 1.0E-05 M) | Residual activity (CDC7/DBF4; 1.0E-06 M) | further results
O=C(Nc1ccc(F)c(Nc2ccc3c(c2)CCCCC3=O)c1)c1cccc(F)c1 [Compound 109] | 75 % of control | 90 % of control | 89 % of control | 96 % of control | 102 % of control | 108 % of control | 102 % of control | 89 % of control | 74 % of control | 94 % of control | 90 % of control | 107 % of control | 90 % of control | 79 % of control | 106 % of control | 104 % of control | 86 % of control | 96 % of control | 91 % of control | 96 % of control | Residual activity (CK1gamma1; 1.0E-05 M): 57 % of control; Residual activity (CK1gamma1; 1.0E-06 M): 86 % of control; Residual activity (NEK1; 1.0E-05 M): 93 % of control; Residual activity (NEK1; 1.0E-06 M): 96 % of control; inhibition at 1 µM (CK1delta; 1 µM, read-out: inhibition of CK1-δ): ≥ 50%; inhibition at 10 µM (CK1delta; 10 µM, read-out: inhibition of CK1-δ): ≥ 50%; Residual activity (CK1delta; 1.0E-05 M): 15 % of control; Residual activity (CK1delta; 1.0E-06 M): 23 % of control; Residual activity (BLK; 1.0E-05 M): 82 % of control; Residual activity (BLK; 1.0E-06 M): 82 % of control
O=C(Cc1ccccc1)Nc1ccc(F)c(Nc2ccc3c(c2)CCCCC3=O)c1 [Compound 100] | 82 % of control | 94 % of control | 92 % of control | 112 % of control | 108 % of control | 112 % of control | 89 % of control | 90 % of control | 72 % of control | 92 % of control | 90 % of control | 93 % of control | 67 % of control | 81 % of control | 96 % of control | 108 % of control | 75 % of control | 95 % of control | 93 % of control | 98 % of control | Residual activity (CK1gamma1; 1.0E-05 M): 115 % of control; Residual activity (CK1gamma1; 1.0E-06 M): 111 % of control; Residual activity (NEK1; 1.0E-05 M): 96 % of control; Residual activity (NEK1; 1.0E-06 M): 98 % of control; Residual activity (CK1delta; 1.0E-05 M): 106 % of control; Residual activity (CK1delta; 1.0E-06 M): 110 % of control; Residual activity (BLK; 1.0E-05 M): 110 % of control; Residual activity (BLK; 1.0E-06 M): 118 % of control

From article PMC9030254, “Target Hopping from Protein Kinases to PXR: Identification of Small-Molecule Protein Kinase Inhibitors as Selective Modulators of Pregnane X Receptor from TüKIC Library” (Cells, 2022)
